System: mouse cortical cultures
Test: RNA-seq differential expression (DESeq) against matched vehicle
Type: cell-based
Parameters: key to MeanFenamidone Bcl11b / MeanFenamidone Slc12a4 / MeanFenamidone Abca1 / MeanFenamidone Hmox1 / MeanFenamidone Il1rap / MeanFenamidone Cyba / MeanFenamidone Narf / MeanFenamidone Bnip3 / MeanFenamidone Amotl2 / MeanFenamidone Gad2 / MeanFenamidone Vsnl1 / MeanFenamidone Fam178a: DESeq mean of counts over RefSeq exons
Description: Figure 4 Cluster 2 chemicals alter expression of a common set of genes. […] RNA-seq was performed in quadruplicate after treating cortical cultures with fenamidone (10 μM) or pyraclostrobin (0.1 μM) for 24 h (n=3 biological replicates) and compared with matched vehicle controls using DESeq to detect differentially expressed genes, listed in Supplementary Data 4.
Cultures were treated with the non-cytotoxic dose of each chemical, by exchanging half of the original medium with chemicals at 2 × concentration in prewarmed feeding medium, on DIV 7 for 24 h in 12-well plates at a density of 5 × 10^5 cells per well. RNA was isolated using RNeasy plus mini kit (Cat. #74134, Qiagen). […]. Samples were further assessed for quality using either an Agilent Bioanalyzer 2100 or TapeStation 2200 to obtain a RIN. RIN values exceeding 7 were used for sequencing. RNA samples were used to generate and barcode complementary DNA libraries using the TruSeq RNA Library Preparation Kit at the UNC High Throughput Sequencing Facility. Pools of 24 multiplexed samples were sequenced per lane on an Illumina HiSeq 2500 using 50-bp paired-end reads.
RNA-seq reads were filtered using TagDust and aligned to the reference mouse genome (mm9) with TopHat using default parameters. Reads aligning to ribosomal RNA genes were removed. Transcript abundance was estimated by computing Reads per kilobase per million mapped reads (RPKM) using RefSeq gene models aggregated by gene symbol. For differential expression analyses, raw counts over RefSeq exons were used, and then were compared across samples using DESeq[62].

## CSC1=N[C@@](C)(c2ccccc2)C(=O)N1Nc1ccccc1 [fenamidone]
Gene Dclk1
  MeanFenamidone: 2436.98
  log2FoldChange: -1.095
Gene Dcxr
  MeanFenamidone: 235.507
  log2FoldChange: 3.058
Gene Diras1
  MeanFenamidone: 170.873
  log2FoldChange: -1.25
Gene Dlg2
  MeanFenamidone: 695.294
  log2FoldChange: -1.3121
Gene Dlx1as, DESeq mean, 4 reps
  MeanFenamidone Dlx1as: 22.8822
Gene Dlx1as, vs vehicle, 4 reps
  log2FoldChange Dlx1as: -2.397
Gene Dnaja1
  MeanFenamidone: 313.407
  log2FoldChange: -1.061
Gene Dnm3, DESeq mean, 4 reps
  MeanFenamidone Dnm3: 187.1
Gene Dnm3, vs vehicle, 4 reps
  log2FoldChange Dnm3: -1.706
Gene Dpp10, DESeq mean, 4 reps
  MeanFenamidone Dpp10: 62.8613
Gene Dpp10, vs vehicle, 4 reps
  log2FoldChange Dpp10: -1.776
Gene Dzank1, DESeq mean, 4 reps
  MeanFenamidone Dzank1: 112.179
Gene Dzank1, vs vehicle, 4 reps
  log2FoldChange Dzank1: -1.428
Gene Eda2r, DESeq mean, 4 reps
  MeanFenamidone Eda2r: 436.944
Gene Eda2r, vs vehicle, 4 reps
  log2FoldChange Eda2r: 1.783
Gene Efemp1, DESeq mean, 4 reps
  MeanFenamidone Efemp1: 94.4395
Gene Efemp1, vs vehicle, 4 reps
  log2FoldChange Efemp1: 2.414
Gene Egfr
  MeanFenamidone: 148.93
  log2FoldChange: 1.836
Gene Eif4ebp1, DESeq mean, 4 reps
  MeanFenamidone Eif4ebp1: 125.436
Gene Eif4ebp1, vs vehicle, 4 reps
  log2FoldChange Eif4ebp1: 2.511
Gene Elavl2, DESeq mean, 4 reps
  MeanFenamidone Elavl2: 207.006
Gene Elavl2, vs vehicle, 4 reps
  log2FoldChange Elavl2: -1.527
Gene Elovl1, DESeq mean, 4 reps
  MeanFenamidone Elovl1: 104.754
Gene Elovl1, vs vehicle, 4 reps
  log2FoldChange Elovl1: 2.586
Gene Enox1
  MeanFenamidone: 25.4463
  log2FoldChange: -1.757
Gene Epas1
  MeanFenamidone: 154.593
  log2FoldChange: 2.42
Gene Ephx1, DESeq mean, 4 reps
  MeanFenamidone Ephx1: 789.724
Gene Ephx1, vs vehicle, 4 reps
  log2FoldChange Ephx1: 1.959
Gene Epm2aip1
  MeanFenamidone: 711.569
  log2FoldChange: -0.9776
Gene Etfb
  MeanFenamidone: 102.831
  log2FoldChange: 1.903
Gene Evc
  MeanFenamidone: 45.1413
  log2FoldChange: 1.984
Gene F2r, DESeq mean, 4 reps
  MeanFenamidone F2r: 1216.46
Gene F2r, vs vehicle, 4 reps
  log2FoldChange F2r: 2.012
Gene F3, DESeq mean, 4 reps
  MeanFenamidone F3: 324.561
Gene F3, vs vehicle, 4 reps
  log2FoldChange F3: 2.464
Gene Fam78b
  MeanFenamidone: 119.127
  log2FoldChange: -1.289
Gene Fam163b, DESeq mean, 4 reps
  MeanFenamidone Fam163b: 135.664
Gene Fam163b, vs vehicle, 4 reps
  log2FoldChange Fam163b: -1.491
Gene Fam178a, DESeq mean, 4 reps
  MeanFenamidone Fam178a: 780.387
Gene Fam178a, vs vehicle, 4 reps
  log2FoldChange Fam178a: 1.493
Gene Fat1, DESeq mean, 4 reps
  MeanFenamidone Fat1: 2188.76
Gene Fat1, vs vehicle, 4 reps
  log2FoldChange Fat1: 1.677
Gene Fbn1, DESeq mean, 4 reps
  MeanFenamidone Fbn1: 159.478
Gene Fbn1, vs vehicle, 4 reps
  log2FoldChange Fbn1: 2.303
Gene Fbxo9, DESeq mean, 4 reps
  MeanFenamidone Fbxo9: 32.2944
Gene Fbxo9, vs vehicle, 4 reps
  log2FoldChange Fbxo9: -2.181
Gene Fermt2, DESeq mean, 4 reps
  MeanFenamidone Fermt2: 437.255
Gene Fermt2, vs vehicle, 4 reps
  log2FoldChange Fermt2: 1.474
Gene Fgf13
  MeanFenamidone: 224.473
  log2FoldChange: -1.202
Gene Fgfr3, DESeq mean, 4 reps
  MeanFenamidone Fgfr3: 309.362
Gene Fgfr3, vs vehicle, 4 reps
  log2FoldChange Fgfr3: 1.548
Gene Fkbp9, DESeq mean, 4 reps
  MeanFenamidone Fkbp9: 763.489
Gene Fkbp9, vs vehicle, 4 reps
  log2FoldChange Fkbp9: 1.78
Gene Flna, DESeq mean, 4 reps
  MeanFenamidone Flna: 4335.97
Gene Flna, vs vehicle, 4 reps
  log2FoldChange Flna: 1.783
Gene Flnb, DESeq mean, 4 reps
  MeanFenamidone Flnb: 1183.24
Gene Flnb, vs vehicle, 4 reps
  log2FoldChange Flnb: 2.364
Gene Flnc, DESeq mean, 4 reps
  MeanFenamidone Flnc: 270.515
Gene Flnc, vs vehicle, 4 reps
  log2FoldChange Flnc: 3.121
Gene Fn1, DESeq mean, 4 reps
  MeanFenamidone Fn1: 2242.75
Gene Fn1, vs vehicle, 4 reps
  log2FoldChange Fn1: 2.874
Gene Fzd7
  MeanFenamidone: 201.665
  log2FoldChange: 1.705
Gene Gad1, DESeq mean, 4 reps
  MeanFenamidone Gad1: 102.047
Gene Gad1, vs vehicle, 4 reps
  log2FoldChange Gad1: -2.011
Gene Gad2, DESeq mean, 4 reps
  MeanFenamidone Gad2: 49.2241
Gene Gad2, vs vehicle, 4 reps
  log2FoldChange Gad2: -2.6503
Gene Gas6
  MeanFenamidone: 1188.11
  log2FoldChange: 1.393
Gene Gas7
  MeanFenamidone: 704.19
  log2FoldChange: -1.128
Gene Gdf15, DESeq mean, 4 reps
  MeanFenamidone Gdf15: 107.196
Gene Gdf15, vs vehicle, 4 reps
  log2FoldChange Gdf15: 3.431
Gene Glis2
  MeanFenamidone: 157.775
  log2FoldChange: 1.455
Gene Gls, DESeq mean, 4 reps
  MeanFenamidone Gls: 297.391
Gene Gls, vs vehicle, 4 reps
  log2FoldChange Gls: -1.569
Gene Gm5424, DESeq mean, 4 reps
  MeanFenamidone Gm5424: 1293.84
Gene Gm5424, vs vehicle, 4 reps
  log2FoldChange Gm5424: 2.267
Gene Gng2
  MeanFenamidone: 1878.98
  log2FoldChange: -1.047
Gene Gpnmb, DESeq mean, 4 reps
  MeanFenamidone Gpnmb: 552.991
Gene Gpnmb, vs vehicle, 4 reps
  log2FoldChange Gpnmb: 3.791
Gene Gpr22
  MeanFenamidone: 61.8379
  log2FoldChange: -1.6935
Gene Gpr88, DESeq mean, 4 reps
  MeanFenamidone Gpr88: 81.4648
Gene Gpr88, vs vehicle, 4 reps
  log2FoldChange Gpr88: -2.268
Gene Gpx1, DESeq mean, 4 reps
  MeanFenamidone Gpx1: 550.81
Gene Gpx1, vs vehicle, 4 reps
  log2FoldChange Gpx1: 1.571
Gene Grik3, DESeq mean, 4 reps
  MeanFenamidone Grik3: 96.3695
Gene Grik3, vs vehicle, 4 reps
  log2FoldChange Grik3: -2.234
Gene Grin1os, Fenamidone, 4 reps, vs matched vehicle
  MeanFenamidone (DESeq mean normalized counts): 76.6399
Gene Grm5
  MeanFenamidone: 468.182
  log2FoldChange: -1.139
Gene Gss, DESeq mean, 4 reps
  MeanFenamidone Gss: 95.0873
Gene Gss, vs vehicle, 4 reps
  log2FoldChange Gss: 2.127
Gene Gstm1, DESeq mean, 4 reps
  MeanFenamidone Gstm1: 533.415
Gene Gstm1, vs vehicle, 4 reps
  log2FoldChange Gstm1: 2.03
Gene Gtse1
  MeanFenamidone: 113.042
  log2FoldChange: 1.636
Gene Gxylt2, DESeq mean, 4 reps
  MeanFenamidone Gxylt2: 58.8169
Gene Gxylt2, vs vehicle, 4 reps
  log2FoldChange Gxylt2: 2.562
Gene Hbegf, DESeq mean, 4 reps
  MeanFenamidone Hbegf: 726.667
Gene Hbegf, vs vehicle, 4 reps
  log2FoldChange Hbegf: 2.744
Gene Hivep2
  MeanFenamidone: 554.938
  log2FoldChange: -0.989
Gene Hmox1, DESeq mean, 4 reps
  MeanFenamidone Hmox1: 1318.42
Gene Hmox1, vs vehicle, 4 reps
  log2FoldChange Hmox1: 3.72
Gene Hspg2, DESeq mean, 4 reps
  MeanFenamidone Hspg2: 1082.79
Gene Hspg2, vs vehicle, 4 reps
  log2FoldChange Hspg2: 3.326
Gene Icam1, DESeq mean, 4 reps
  MeanFenamidone Icam1: 359.44
Gene Icam1, vs vehicle, 4 reps
  log2FoldChange Icam1: 2.082
Gene Igdcc4, DESeq mean, 4 reps
  MeanFenamidone Igdcc4: 745.33
Gene Igdcc4, vs vehicle, 4 reps
  log2FoldChange Igdcc4: 1.594
Gene Il1rap, DESeq mean, 4 reps
  MeanFenamidone Il1rap: 123.358
Gene Il1rap, vs vehicle, 4 reps
  log2FoldChange Il1rap: 1.873
Gene Inf2, DESeq mean, 4 reps
  MeanFenamidone Inf2: 157.523
Gene Inf2, vs vehicle, 4 reps
  log2FoldChange Inf2: 1.741
Gene Irs1
  MeanFenamidone: 506.425
  log2FoldChange: 1.154
Gene Itga3, DESeq mean, 4 reps
  MeanFenamidone Itga3: 452.545
Gene Itga3, vs vehicle, 4 reps
  log2FoldChange Itga3: 2.403
Gene Itga5, DESeq mean, 4 reps
  MeanFenamidone Itga5: 86.8768
Gene Itga5, vs vehicle, 4 reps
  log2FoldChange Itga5: 3.801
Gene Itga6, DESeq mean, 4 reps
  MeanFenamidone Itga6: 547.54
Gene Itga6, vs vehicle, 4 reps
  log2FoldChange Itga6: 1.506
Gene Itga7, DESeq mean, 4 reps
  MeanFenamidone Itga7: 82.7144
Gene Itga7, vs vehicle, 4 reps
  log2FoldChange Itga7: 2.577
Gene Itgav, DESeq mean, 4 reps
  MeanFenamidone Itgav: 659.409
Gene Itgav, vs vehicle, 4 reps
  log2FoldChange Itgav: 1.938
Gene Itgb1, DESeq mean, 4 reps
  MeanFenamidone Itgb1: 2073.15
Gene Itgb1, vs vehicle, 4 reps
  log2FoldChange Itgb1: 1.665
Gene Kcnc2
  MeanFenamidone: 16.7005
  log2FoldChange: -1.836
Gene Kcnh3, DESeq mean, 4 reps
  MeanFenamidone Kcnh3: 28.6602
Gene Kcnh3, vs vehicle, 4 reps
  log2FoldChange Kcnh3: -2.172
Gene Kcnv1, DESeq mean, 4 reps
  MeanFenamidone Kcnv1: 52.8142
Gene Kcnv1, vs vehicle, 4 reps
  log2FoldChange Kcnv1: -2.08
Gene Kctd12
  MeanFenamidone: 687.782
  log2FoldChange: -1.125
Gene Kdelc2, DESeq mean, 4 reps
  MeanFenamidone Kdelc2: 146.187
Gene Kdelc2, vs vehicle, 4 reps
  log2FoldChange Kdelc2: 1.909
Gene Kif1c, DESeq mean, 4 reps
  MeanFenamidone Kif1c: 782.878
Gene Kif1c, vs vehicle, 4 reps
  log2FoldChange Kif1c: 2.167

From publication PMC4821887, “Identification of chemicals that mimic transcriptional changes associated with autism, brain aging and neurodegeneration” (Nature Communications, 2016)
